What was measured:
Type in all cases: in vivo
[1] = system: Beet Armyworm (Spodoptera exigua, LAPHEG); experiment: Insecticidal test for beet armyworm (BAW), 128-well diet tray assay; details: 168 h, 50 μg/cm^2 of test compound on artificial diet, second instar larvae, 25° C., five to seven days, average of eight wells, read-out: BAW % Control (or Mortality) rating
Outline: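 Second-instar larvae placed on artificial diet surface-treated with 50 μg/cm^2 compound (in acetone-water), eight wells per compound. Held at 25° C, 14:10 light-dark for five to seven days; percent mortality averaged across the eight wells.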

[2] = system: Cabbage Looper (Trichloplusia Ni, TRIPNI); experiment: Insecticidal test for cabbage looper (CL), 128-well diet tray assay; details: Trichoplusia ni, 168 h, read-out: CL % Control (or Mortality) rating
Outline: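 Second-instar larvae on artificial diet treated with 50 μg/cm^2 compound (acetone-water 90:10), dried; held 25° C., 14:10 light-dark, five to seven days. Percent mortality per well, averaged over eight wells.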

[3] = system: Yellow Fever Mosquito (Aedes aegypti, AEDSAE); experiment: Insecticidal test for yellow fever mosquito (YFM), 96-well plate larval assay; details: from 4000 ppm DMSO master solution, diluted; about 1 day-old larvae; room temperature; scored after 3 days
Outline: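 Compounds from 4000 ppm DMSO master stocks (diluted with 90:10 water/acetone) dispensed into wells, then infested with ~1-day-old Aedes aegypti larvae in liver-powder water; 6 replicate plates. Lidded plates held at room temperature 3 days, then each well scored for mortality.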

| Compound | mortality at 50 µg/cm2 [1] | mortality at 50 µg/cm2 [2] | YFM % Control (or Mortality) rating [3] |
| --- | --- | --- | --- |
| CC(Cc1ccc(NC(=O)Nc2ccc(OC(F)(F)F)cc2)cc1)NC(=O)/N=C1\SCC(=O)N1c1cc(Cl)ccc1C(C)C (stereo not drawn) [Compound A35, (Z)-1-(4-(2-(3-(3-(5-Chloro-2-isopropylphenyl)-4-oxothiazolidin-2-ylidene)ureido)propyl)phenyl)-3-(4-(trifluoromethoxy)phenyl)urea] | 50 to 100% | 50 to 100% | A (80-100) |
| Cc1ccc(C(C)C)c(N2C(=O)CS/C2=N\C(=O)Nc2ccc(NS(=O)(=O)c3ccc(OC(F)(F)F)cc3)cc2)c1 [Compound A51, (Z)—N-(4-(3-(3-(2-isopropyl-5-methylphenyl)-4-oxothiazolidin-2-ylidene)ureido)phenyl)-4-(trifluoromethoxy)benzenesulfonamide] | 0% | 50 to 100% | B (More than 0-Less than 80) |
| CC(C)c1ccccc1N1C(=O)CS/C1=N\C(=O)NCCc1ccc(NC(=O)Nc2ccc(OC(F)(F)F)cc2)cc1 [Compound A16, (Z)-1-(4-(2-(3-(3-(2-Isopropylphenyl)-4-oxothiazolidin-2-ylidene)ureido)ethyl)phenyl)-3-(4-(trifluoromethoxy)phenyl)urea] | 50 to 100% | 50 to 100% | A (80-100) |

Source: patent publication US11332452B2, “Pesticidal compositions and methods” (priority 2019, dated 2022)
